Results published in patent US8076487B2, “Pyridone derivative and herbicide” (Kumiai Chemical Industry Co., Ltd., priority 2006, dated 2011).

Experiments:
Type in all cases: in vivo
[1] = system: green foxtail (Setaria viridis (L.) P. Beauv.); test: Test Example 3: herbicidal effect by application to upland field (foliage treatment); conditions: 14th day after application; for herbicidal effect, Green Foxtail: foliage treatment, 1,000 g active ingredient per 1 hectare, greenhouse
Procedure, shortened: (§1)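 A single foliar application of a water-diluted wettable powder, at 1,000 g of active ingredient per hectare, was made to plants raised for two weeks from seed in field soil. Herbicidal activity was judged visually after a further 14 days in the greenhouse.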

[2] = system: velvetleaf (Abutilon theophrasti medicus); test: as above; conditions: 14th day after application; for herbicidal effect, Velvetleaf: foliage treatment, 1,000 g active ingredient per 1 hectare, greenhouse
Procedure, shortened: as §1

[3] = system: barnyardgrass (Echinochloa crus-galli (L.) P. Beauv. var. crus-galli); test: as above; conditions: 14th day after application; for herbicidal effect, Barnyardgrass: foliage treatment, 1,000 g active ingredient per 1 hectare, greenhouse
Procedure, shortened: as §1

[4] = system: slender amaranth (Amaranthus viridis L.); test: as above; conditions: 14th day after application; for herbicidal effect, Slender Amaranth: foliage treatment, 1,000 g active ingredient per 1 hectare, greenhouse
Procedure, shortened: as §1

[5] = system: green foxtail (Setaria viridis (L.) P. Beauv.); test: Test Example 2: herbicidal effect by soil application to upland field; conditions: soil surface spray, upland field soil, 1,000 g active ingredient per hectare, 21st day after application
Procedure, shortened: (§2)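 Scoring on a standard scale took place 21 days after application, with plants kept in a greenhouse. Active ingredient (1,000 g/ha, as diluted wettable powder, 1,000 L/ha) was sprayed evenly onto soil directly after sowing and covering seeds.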

[6] = system: velvetleaf (Abutilon theophrasti medicus); test: as above; conditions: soil surface spray, upland field soil, 1,000 g active ingredient per hectare, 21st day after application
Procedure, shortened: as §2

[7] = system: barnyardgrass (Echinochloa crus-galli (L.) P. Beauv. var. crus-galli); test: as above; conditions: soil surface spray, upland field soil, 1,000 g active ingredient per hectare, 21st day after application
Procedure, shortened: as §2

[8] = system: slender amaranth (Amaranthus viridis L.); test: as above; conditions: soil surface spray, upland field soil, 1,000 g active ingredient per hectare, 21st day after application
Procedure, shortened: as §2

[9] = system: heartshape false pickerelweed (Monochoria vaginalis (Burm.f.) C.Presl); test: Test Example 1: herbicidal effect by soil application to paddy field; conditions: paddy field soil application; active ingredient 1,000 g per 1 hectare; wettable powder added dropwise to water surface the day after sowing; examined on the 21st day after application
Procedure, shortened: (§3)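 Under greenhouse conditions, seeds sown on puddled paddy soil in 100 cm2 pots under 3 cm of standing water received the test compound; injury was assessed with a standard scoring scheme three weeks (day 21) after treatment.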

[10] = system: Japanese bulrush (Scirpus juncoides Roxb.); test: as above; conditions: paddy field soil application; active ingredient 1,000 g per 1 hectare; wettable powder added dropwise to water surface the day after sowing; examined on the 21st day after application
Procedure, shortened: as §3

[11] = system: early watergrass (Echinochloa oryzicola Vasing); test: as above; conditions: paddy field soil application; active ingredient 1,000 g per 1 hectare; wettable powder added dropwise to water surface the day after sowing; examined on the 21st day after application
Procedure, shortened: as §3

[12] = foliage treatment, plants grown two weeks, 1,000 g active ingredient per hectare

SMILES	herbicidal effect, Green Foxtail [1]	herbicidal effect, Velvetleaf [2]	herbicidal effect, Barnyardgrass [3]	herbicidal effect, Slender Amaranth [4]	herbicidal effect (index), Green Foxtail [5]	herbicidal effect (index), Velvetleaf [6]	herbicidal effect (index), Barnyardgrass [7]	herbicidal effect (index), Slender Amaranth [8]	herbicidal effect, Monochoria vaginalis (Burm. f.) C. Presl [9]	herbicidal effect, Scirpus juncoides Roxb. [10]	herbicidal effect, Echinochloa oryzicola Vasing [11]	herbicidal effect (index), Green Foxtail [1, 12]	herbicidal effect (index), Velvetleaf [2, 12]	herbicidal effect (index), Barnyardgrass [3, 12]	herbicidal effect (index), Slender Amaranth [4, 12]
CCN(C(=O)OC)n1c(C(F)(F)F)ccc(C(=O)C2=C(O)CCCC2=O)c1=O [I-191]	5 (90% or more of herbicidal effect and crop phytotoxicity)	5 (90% or more of herbicidal effect and crop phytotoxicity)	5 (90% or more of herbicidal effect and crop phytotoxicity)	5 (90% or more of herbicidal effect and crop phytotoxicity)	5 (90% or more of herbicidal effect and crop phytotoxicity)	5 (90% or more of herbicidal effect and crop phytotoxicity)	5 (90% or more of herbicidal effect and crop phytotoxicity)	5 (90% or more of herbicidal effect and crop phytotoxicity)	5 (90% or more of herbicidal effect and crop phytotoxicity)	5 (90% or more of herbicidal effect and crop phytotoxicity)	5 (90% or more of herbicidal effect and crop phytotoxicity)	–	–	–	–
COCc1cc(-n2c(C(F)(F)F)ccc(C(=O)c3cnn(C)c3O)c2=O)ccc1F [IV-95]	5 (90% or more of herbicidal effect and crop phytotoxicity)	5 (90% or more of herbicidal effect and crop phytotoxicity)	5 (90% or more of herbicidal effect and crop phytotoxicity)	5 (90% or more of herbicidal effect and crop phytotoxicity)	5 (90% or more of herbicidal effect and crop phytotoxicity)	5 (90% or more of herbicidal effect and crop phytotoxicity)	5 (90% or more of herbicidal effect and crop phytotoxicity)	5 (90% or more of herbicidal effect and crop phytotoxicity)	5 (90% or more of herbicidal effect and crop phytotoxicity)	5 (90% or more of herbicidal effect and crop phytotoxicity)	5 (90% or more of herbicidal effect and crop phytotoxicity)	–	–	–	–
O=C1CCCC(O)=C1C(=O)c1ccc(C(F)(F)F)n(CCC=C(Cl)Cl)c1=O [I-26]	–	–	–	–	5 (90% or more of herbicidal effect and crop phytotoxicity)	5 (90% or more of herbicidal effect and crop phytotoxicity)	5 (90% or more of herbicidal effect and crop phytotoxicity)	5 (90% or more of herbicidal effect and crop phytotoxicity)	5 (90% or more of herbicidal effect and crop phytotoxicity)	5 (90% or more of herbicidal effect and crop phytotoxicity)	5 (90% or more of herbicidal effect and crop phytotoxicity)	4 (70 to less than 90% of herbicidal effect and crop phytotoxicity)	5 (90% or more of herbicidal effect and crop phytotoxicity)	4 (70 to less than 90% of herbicidal effect and crop phytotoxicity)	5 (90% or more of herbicidal effect and crop phytotoxicity)
COC(C)Cn1c(C(F)(F)F)ccc(C(=O)c2cnn(C)c2O)c1=O (stereo not drawn) [IV-38]	5 (90% or more of herbicidal effect and crop phytotoxicity)	5 (90% or more of herbicidal effect and crop phytotoxicity)	5 (90% or more of herbicidal effect and crop phytotoxicity)	5 (90% or more of herbicidal effect and crop phytotoxicity)	4 (70 to less than 90% of herbicidal effect and crop phytotoxicity)	5 (90% or more of herbicidal effect and crop phytotoxicity)	5 (90% or more of herbicidal effect and crop phytotoxicity)	5 (90% or more of herbicidal effect and crop phytotoxicity)	5 (90% or more of herbicidal effect and crop phytotoxicity)	5 (90% or more of herbicidal effect and crop phytotoxicity)	5 (90% or more of herbicidal effect and crop phytotoxicity)	–	–	–	–
CC1(C)CCC(O)=C(C(=O)c2ccc(C(F)(F)F)n(-c3cc(F)cc(F)c3)c2=O)C1=O [II-40]	4 (70 to less than 90% of herbicidal effect and crop phytotoxicity)	5 (90% or more of herbicidal effect and crop phytotoxicity)	5 (90% or more of herbicidal effect and crop phytotoxicity)	5 (90% or more of herbicidal effect and crop phytotoxicity)	5 (90% or more of herbicidal effect and crop phytotoxicity)	5 (90% or more of herbicidal effect and crop phytotoxicity)	5 (90% or more of herbicidal effect and crop phytotoxicity)	5 (90% or more of herbicidal effect and crop phytotoxicity)	5 (90% or more of herbicidal effect and crop phytotoxicity)	5 (90% or more of herbicidal effect and crop phytotoxicity)	5 (90% or more of herbicidal effect and crop phytotoxicity)	–	–	–	–
Cc1cccc(-n2cccc(C(=O)C3=C(O)CCCC3=O)c2=O)c1 [I-238]	4 (70 to less than 90% of herbicidal effect and crop phytotoxicity)	5 (90% or more of herbicidal effect and crop phytotoxicity)	5 (90% or more of herbicidal effect and crop phytotoxicity)	5 (90% or more of herbicidal effect and crop phytotoxicity)	4 (70 to less than 90% of herbicidal effect and crop phytotoxicity)	5 (90% or more of herbicidal effect and crop phytotoxicity)	5 (90% or more of herbicidal effect and crop phytotoxicity)	5 (90% or more of herbicidal effect and crop phytotoxicity)	5 (90% or more of herbicidal effect and crop phytotoxicity)	5 (90% or more of herbicidal effect and crop phytotoxicity)	5 (90% or more of herbicidal effect and crop phytotoxicity)	–	–	–	–
